These results are taken from patent US20220079876A1, “OCULAR IMPLANT CONTAINING A TYROSINE KINASE INHIBITOR” (Ocular Therapeutix, Inc., priority 2020, published 2022).

The solubility is the dissolved amount per volume that the medium holds. High values mean a readily soluble substance, low ones a poorly soluble substance.

The conditions of series [1]: Rugo et al. 2005; cited from earlier work.
A short description of series [2]: In vitro axitinib release under non-sink simulated physiological conditions. The note with it: pH 7.2, aqueous buffer, thermodynamic from solid; PBS from control implant release after 20 or 30 days at 37° C. The class given is physicochemical. On the procedure:
Three exemplarily selected implant formulations were examined (Table 1). Implant variants #1 and 2 were examined using one implant, implant variant #3 using one and two implants (four conditions in total). All conditions were conducted in duplicate.
In vitro released and non-released axitinib was determined for each group without (control) and with daily release media sampling.
For control implant release, samples were placed in tubes. Five mL of PBS (pH 7.2) were added to each tube on day 0 and the tubes were covered with a lid. Samples were then placed in a 37° C. incubator and gently rocked for 20 (1× implant #3) or 30 days (implant #1 and #2, 2× implant #3). At the end of the test period, the PBS was removed (1 mL PBS was saved for testing). One mL of ethanol was added to the residual sample. Both PBS samples and residual samples were tested for axitinib amount released.
For daily implant release, samples were placed in tubes. Five mL of PBS were added to each tube on day 0 and the tubes were covered with a lid. Samples were then placed in a 37° C. incubator and rocked gently. After 24 hours, 4 mL of PBS were removed from each sample from which 1 mL was used for testing and the remaining 3 mL were disposed. Four mL of fresh PBS were added back into each tube. This process was repeated for 20 (1× implant #3) or 30 days (implant #1 and #2, 2× implant #3). […]

The subject of series [3] is VEGF-induced vascular leakage. As to the kind of experiment: VEGF challenge, vascular leakage scored by fluorescein angiography. Particulars: rabbit; 1.25 mg Avastin intravitreal only (group 3). Type of series: in vivo, Dutch belted rabbits.
For series [4] the following is noted: 1.25 mg intravitreal dose (Sinapis et al., 2011); cited from earlier work.
For series [5] the following is noted: in vivo; cited from earlier work.

In brackets after ≈: the same amount, converted by molar mass.

Take `CNC(=O)c1ccccc1Sc1ccc2c(/C=C/c3ccccn3)n[nH]c2c1` [axitinib, N-methyl-2-[3-((E)-2-pyridin-2-yl-vinyl)-1H-indazol-6-ylsulfanyl]-benzamide]: the “Clearance half-life (t1/2)” value in series [1] is “a few hours”. This compound had a solubility in series [2] of 0.24 to 0.4 µg/mL (≈ 0.621 to 1.03 µM).

As for Avastin®: anti-VEGF therapeutic, in series [3], the “Duration of effect post injection” value is ≤ 3 months and the “Vascular leakage after VEGF challenge, after 3 months” value was “vascular leakage re-occurred”. Also, the Half-life in rabbits in series [4] is 158 h.

As for “aflibercept: anti-VEGF agent, aflibercept injection by Regeneron”, in series [5], the “t1/2 in the human eye” value is recorded as “several days”.

On to “ranibizumab: anti-VEGF agent, ranibizumab injection by Genentech”, for which the “t1/2 in the human eye” value in series [5] is reported as “several days”.
